Test results published in patent US7163800B2, “Methods of screening compositions for G protein-coupled receptor desensitization inhibitory activity” (Molecular Devices Corporation, priority 2000, dated 2007).

How the values were obtained:
[1] = molecular target: HA-tagged human β2-adrenergic receptor (human) (UniProt P07550)
[2] = molecular target: human vasopressin V2 receptor (V2R) (Homo sapiens, UniProt P30518); assay: arrestin-GFP localization (Fgrains) assay in U20S-V2R/ArrGFP cells, arginine vasopressin stimulated; format: cell-based; details: 100 nM arginine vasopressin
Procedure: The assay was carried out using two different “double stable” human osteosarcoma cell (U20S) lines. […] The other cell line (U20S-V2R/ArrGFP) stably expressed V2R and the same arrestin-GFP conjugate.
The two cell lines (U20S-β2AR/ArrGFP and U20S-V2R/ArrGFP) were separately plated at 7000 cells/well on 384 well glass bottom plates. Two plates of U20S-β2AR/ArrGFP cells were prepared and two plates of U20S-V2R/ArrGFP cells were prepared.
Growth media was replaced with serum free media (i.e., Eagle's minimum essential medium (EMEM) buffered with 10 mM HEPES (N-2-Hydroxyethylpiperazine-N′-2-ethanesulfonic acid)) 24 hours after plating of the cells.
Each test compound was solvated using 100% dimethyl sulfoxide (DMSO). Multiple solutions of each compound were prepared at varying concentrations for testing in separate wells of each plate. If needed, the solutions were sonicated and heated to increase solubility. After preparation of the compound solutions, they were shielded from light.
Each of the solutions of varying concentrations of the fifteen compounds was added to a well on each of the four plates. The β2AR RT and V2R RT plates were incubated for 30 minutes at room temperature and atmospheric CO2.
Agonist was then added to each well. […] The β2AR RT and V2R RT plates were incubated for 30 minutes at room temperature and atmospheric CO2.
Each assay was then terminated using 1% paraformaldehyde containing 1 μM DRAQ5 DNA probe to fix the cells. The cells were analyzed using a pre-production model (alpha unit) of the IN Cell Analyzer 3000 (Amersham Biosciences), which is a line scanning, confocal imaging system. The IN Cell Analyzer 3000 was used to quantitate the localization of the arrestin-GFP conjugate for the cells in each well using the Amersham Biosciences granularity analysis GRNO algorithm. This algorithm finds the nucleus of cells and then dilates out a specified distance in which fluorescent spots or “grains” of arrestin-GFP localization are identified based on size and fluorescent intensity. The average of the fluorescent intensity of the identified grains per cell in an acquired image (i.e., Fgrains) was determined for each well on the plates.
The graphs for each compound as well as for the propanolol control are illustrated in FIGS. 7–22.
The curve-fitting program allowed the minimum and maximum values as well as the slope and EC50 values to vary rather than fixing the values to specified or collected values.

[3] = molecular target: HA-tagged human β2-adrenergic receptor (β2AR) (Homo sapiens, UniProt P07550); assay: arrestin-GFP localization (Fgrains) assay in U20S-β2AR/ArrGFP cells, isoproterenol stimulated; details: 100 nM isoproterenol
Procedure: Each of the fifteen compounds was separately screened for GPCR desensitization inhibitory activity against HA-tagged human β2-adrenergic receptor (β2AR) and against human vasopressin V2 receptor (V2R). In addition, the effects of temperature and carbon dioxide (CO2) were evaluated with respect to each compound.

[4] = system: β2AR and V2R; details: inhibitory activity shown for both β2AR and V2R
Text: Each of the fifteen compounds was separately screened for GPCR desensitization inhibitory activity against HA-tagged human β2-adrenergic receptor (β2AR) and against human vasopressin V2 receptor (V2R).
As indicated by the Fgrains values for the cells in the Basal and Stimulated control wells, the Fgrains value determined by the IN Cell Analyzer 3000 in this example was functionally a measure of the average extent of desensitization in the cells in each well.

[5] = V2R CO2 plate: 37° C., 5% CO2/95% O2
[6] = V2R RT plate: room temperature, atmospheric CO2
[7] = B2AR CO2 plate: 37° C., 5% CO2/95% O2
[8] = B2AR RT plate: room temperature, atmospheric CO2

Compound | EC50 [2, 5] [µM] | Max Rsp (change between fitted maximum and fitted minimum Fgrains) [2, 5] | Min (fitted minimum Fgrains) [2, 5] | pEC50 [2, 5] | slope of concentration-response curve [2, 5] | EC50 [2, 6] [µM] | Max Rsp (change between fitted maximum and fitted minimum Fgrains) [2, 6] | Min (fitted minimum Fgrains) [2, 6] | pEC50 [2, 6] | slope of concentration-response curve [2, 6] | EC50 [3, 7] [µM] | Max Rsp (change between fitted maximum and fitted minimum Fgrains) [3, 7] | Min (fitted minimum Fgrains) [3, 7] | pEC50 [3, 7] | slope of concentration-response curve [3, 7] | EC50 [3, 8] [µM] | Max Rsp (change between fitted maximum and fitted minimum Fgrains) [3, 8] | Min (fitted minimum Fgrains) [3, 8] | pEC50 [3, 8] | slope of concentration-response curve [3, 8] | other results
arrestin-GFP conjugate of the Renilla reniformis green fluorescent protein fused in frame to the carboxyl terminus of rat β-arrestin2 (from UniProt P29067) | – | – | – | – | – | – | – | – | – | – | – | – | – | – | – | – | – | – | – | – | Fgrains (average fluorescent intensity of identified grains of arrestin-GFP localization per cell), Stimulated against Basal control wells, B2AR CO2 plate [1]: 431 Fgrains
Bisindolylmaleimide VI | 24.6 | 499 | 94 | 4.6 | 0.8 | 18.3 | 696 | −118 | 4.7 | 1.2 | 12.7 | 270 | 170 | 4.9 | 2.4 | 9 | 210 | 213 | 5.0 | 4.4 | indication of non-receptor-specific GPCR desensitization inhibitory activity [4]: non-receptor-specific GPCR desensitization inhibitory activity
Cn1cc(C2=C(c3c4n(c5ccccc35)CCC(CN)C4)C(=O)NC2=O)c2ccccc21 (stereo not shown) [RO-31-8425] | 13.9 | 532 | 60 | 4.9 | 1.0 | 6.9 | 342 | 241 | 5.2 | 1.5 | 8.8 | 203 | 233 | 5.1 | 2.1 | 23.2 | 359 | 60 | 4.6 | 1.3 | indication of non-receptor-specific GPCR desensitization inhibitory activity [4]: non-receptor-specific GPCR desensitization inhibitory activity
